Experimental data from US6979686B1, “Substituted pyrazoles as p38 kinase inhibitors” (Pharmacia Corporation, priority 2001, dated 2005).
Read-outs that look alike come from different tables or passages of the source.

Legend:
[1] = system: TNF-α, U937 human histiocytic lymphoma cell line; test: LPS stimulation of TNF production by U937 cells; assay type: cell-based; details: for inhibition at 1 µM: U-937, @ 1.0 uM, read-out: U937 Cell % inhib @ conc.; for U937 Cell % inhib @ conc. (uM): @ 1.0 uM
In short: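 U937 cells differentiated 24 h with 20 ng/ml PMA, rested 24-48 h, used at 2 million cells/ml. Compounds in 0.1% DMSO final; LPS (E. coli, 100 ng/ml final) stimulation for 4 h at 37° C. Released TNF-α measured by ELISA; IC50 (μM).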

human p38 kinase alpha = target: T1, human p38 kinase alpha (Homo sapiens, UniProt Q16539); test: p38 kinase in vitro assay, phosphorylation of biotinylated PHAS-I with 32P-ATP; assay type: biochemical; details: for IC50: read-out: P38 alpha kinase IC50; for inhibition at 1 µM: read-out: P38 alpha kinase % inhib @ conc.
T1 construct: GST (N, cleaved yes); made in house; host or cells: E. coli DH10B

[2] = Homo sapiens, U-937, TNF production, human U937 cells stimulated with LPS, read-out: U937 Cell IC50
[3] = in vitro P38-alpha kinase inhibition
[4] = TNF production, U937 cells stimulated with LPS, read-out: U937 Cell IC50, uM or % inhib @ conc. (uM): IC50
[5] = Homo sapiens, TNF production, U937 cells stimulated with LPS
[6] = Homo sapiens, TNF production, LPS-stimulated U937 cells
[7] = TNF production, human U937 cells stimulated with LPS, read-out: U937 Cell IC50

T1 sequence (Q16539 whole entry): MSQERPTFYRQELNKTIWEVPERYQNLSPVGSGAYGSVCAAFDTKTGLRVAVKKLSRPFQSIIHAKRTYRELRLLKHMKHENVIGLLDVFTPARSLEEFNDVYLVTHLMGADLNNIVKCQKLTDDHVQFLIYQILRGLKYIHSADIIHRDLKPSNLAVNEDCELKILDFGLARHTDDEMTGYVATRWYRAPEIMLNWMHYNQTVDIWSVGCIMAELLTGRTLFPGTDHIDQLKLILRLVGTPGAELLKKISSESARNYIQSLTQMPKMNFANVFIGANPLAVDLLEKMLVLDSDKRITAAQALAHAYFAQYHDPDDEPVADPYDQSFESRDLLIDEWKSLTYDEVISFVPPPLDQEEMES

CCN(CC)C(=O)Cn1nc(-c2ccc(F)cc2)c(-c2ccncc2)c1C [Example B-2371]
U937 Cell % inhib @ conc. ([1]; @ 10.0 uM, TNF production, LPS-stimulated U937 cells): 36.0% @ | P38 alpha kinase % inhib @ conc. (human p38 kinase alpha; @ 10.0 uM): 54.0% @

Cc1ccc(C(=O)NC(Cc2ccccc2)c2[nH]nc(-c3ccc(F)cc3)c2-c2ccncc2)cc1 (centres unmarked) [Example B-0818]
IC50 [1, 2]: > 1 µM | IC50 (human p38 kinase alpha; [3]): 4.97 µM

CC(C)C(=O)NC(Cc1ccccc1)c1[nH]nc(-c2ccc(F)cc2)c1-c1ccncc1 (centres unmarked) [Example B-0831]
IC50 [1, 2]: > 1 µM | IC50 (human p38 kinase alpha; [3]): 0.9 µM

O=C(NCc1[nH]nc(-c2ccc(F)cc2)c1-c1ccncc1)c1ccc(F)cc1 [Example B-0042]
IC50 [1, 2]: 2.76 µM | inhibition at 1 µM (human p38 kinase alpha; @ 1.0 uM): 94%

Cc1ccc(NC(=O)Cn2nc(-c3ccc(F)cc3)c(-c3ccncc3)c2C)cc1 [Example B-2423]
IC50 [1, 4]: > 10 µM | P38 alpha kinase IC50, uM or % inhib @ conc. (uM): % inhib (human p38 kinase alpha; @ 10.0 uM): 85.0% @

O=S(=O)(c1cccc(Br)c1)N1CCC(c2[nH]nc(-c3ccc(F)cc3)c2-c2ccncc2)CC1 [Example B-1466]
IC50 [1, 2]: > 1 µM | IC50 (human p38 kinase alpha; in vitro P38-alpha kinase): 1.69 µM

CN(C)c1cccc2c(S(=O)(=O)NCCc3[nH]nc(-c4ccc(F)cc4)c3-c3ccncc3)cccc12 [Example B-1072]
inhibition at 1 µM [1, 5]: 28% | IC50 (human p38 kinase alpha; [3]): 0.38 µM

Cc1cc(Cl)ccc1OCC1SCCN1C(=O)Cn1nc(-c2ccc(F)cc2)c(-c2ccncc2)c1C (centres unmarked) [Example B-2405]
IC50 [1, 4]: > 10 µM | P38 alpha kinase IC50, uM or % inhib @ conc. (uM): % inhib (human p38 kinase alpha; @ 100.0 uM): 47% @

O=C(NC(Cc1ccccc1)c1[nH]nc(-c2ccc(F)cc2)c1-c1ccncc1)C1CCCN1 (centres unmarked) [Example B-0794]
U937 Cell % inhib @ conc. (uM) ([1]; TNF production in human U937 cells stimulated with LPS): 2.0% @ | IC50 (human p38 kinase alpha; [3]): 2.9 µM

O=C(NC(Cc1ccccc1)c1[nH]nc(-c2ccc(F)cc2)c1-c1ccncc1)c1cccc(Br)c1 (centres unmarked) [Example B-0806]
IC50 [1, 2]: > 1 µM | IC50 (human p38 kinase alpha; [3]): 3.28 µM

CNC(=O)CCC(NC(=O)Nc1c(C)cccc1C)c1[nH]nc(-c2ccc(F)cc2)c1-c1ccncc1 (centres unmarked) [Example B-0882]
inhibition at 1 µM [1, 5]: 9% | IC50 (human p38 kinase alpha; [3]): 1.48 µM

Cc1noc(C)c1S(=O)(=O)NCCCc1[nH]nc(-c2ccc(F)cc2)c1-c1ccncc1 [Example B-1281]
inhibition at 1 µM [1, 6]: 85% | IC50 (human p38 kinase alpha; in vitro P38-alpha kinase): < 0.1 µM

CC(NC(=O)c1ccno1)c1[nH]nc(-c2ccc(F)cc2)c1-c1ccncc1 (centres unmarked) [Example B-0541]
inhibition at 1 µM ([1]; Homo sapiens, TNF production in human U937 cells stimulated with LPS): 28% | IC50 (human p38 kinase alpha; [3]): 3.24 µM

O=C(c1cccs1)N1CCC(c2[nH]nc(-c3ccc(F)cc3)c2-c2ccncc2)CC1 [Example B-1384]
IC50 [1, 2]: 0.37 µM | IC50 (human p38 kinase alpha; in vitro P38-alpha kinase): 0.57 µM

COc1ccccc1C(=O)NC(Cc1ccccc1)c1[nH]nc(-c2ccc(F)cc2)c1-c1ccncc1 (centres unmarked) [Example B-0843]
IC50 [1, 2]: > 1 µM | IC50 (human p38 kinase alpha; [3]): 0.61 µM

O=S(=O)(c1ccc(F)cc1)N1CCC(c2[nH]nc(-c3ccc(F)cc3)c2-c2ccncc2)CC1 [Example B-1470]
inhibition at 1 µM [1, 6]: 28% | IC50 (human p38 kinase alpha; in vitro P38-alpha kinase): 0.6 µM

O=S(=O)(c1ccccc1C(F)(F)F)N1CCC(c2[nH]nc(-c3ccc(F)cc3)c2-c2ccncc2)CC1 [Example B-1460]
inhibition at 1 µM [1, 6]: 29% | IC50 (human p38 kinase alpha; in vitro P38-alpha kinase): 0.96 µM

O=C(NCc1[nH]nc(-c2ccc(F)cc2)c1-c1ccncc1)c1ccc(F)c(F)c1F [Example B-0026]
IC50 [1, 2]: 3.27 µM | inhibition at 1 µM (human p38 kinase alpha; @ 1.0 uM): 96%

O=C(NCc1[nH]nc(-c2ccc(F)cc2)c1-c1ccncc1)Nc1ccccc1F [Example B-0162]
IC50 [1, 7]: 2.05 µM | P38 alpha kinase % inhib @ conc. (human p38 kinase alpha; @ 1.0 uM): 23% @

O=C(NC(Cc1ccccc1)c1[nH]nc(-c2ccc(F)cc2)c1-c1ccncc1)C1CC1 (centres unmarked) [Example B-0805]
IC50 [1, 2]: > 1 µM | IC50 (human p38 kinase alpha; [3]): 0.71 µM

CCOC(=O)c1cccc(NC(=O)NCCc2[nH]nc(-c3ccc(F)cc3)c2-c2ccncc2)c1 [Example B-0942]
U937 Cell % inhib @ conc. (uM) ([1]; TNF production, U937 cells stimulated with LPS): 2.0% @ | P38 alpha kinase % inhib @ conc. (uM) (human p38 kinase alpha; @ 1.0 uM): 82.0% @

O=C(NCCc1[nH]nc(-c2ccc(F)cc2)c1-c1ccncc1)c1ccc(Cl)cc1 [Example B-1121]
inhibition at 1 µM [1, 5]: 29% | IC50 (human p38 kinase alpha; [3]): 3.58 µM

COc1ccc(CC(=O)NC(Cc2ccccc2)c2[nH]nc(-c3ccc(F)cc3)c2-c2ccncc2)cc1OC (centres unmarked) [Example B-0847]
inhibition at 1 µM [1, 5]: 21% | IC50 (human p38 kinase alpha; [3]): 0.73 µM

CC(C)=CC(=O)NCCCc1[nH]nc(-c2ccc(F)cc2)c1-c1ccncc1 [Example B-1175]
IC50 [1, 7]: 1.83 µM | P38 alpha kinase % inhib @ conc. (uM) (human p38 kinase alpha; @ 1.0 uM): 72.0% @

CCS(=O)(=O)N1CCC(c2[nH]nc(-c3ccc(F)cc3)c2-c2ccncc2)CC1 [Example B-1375]
IC50 [1, 2]: 0.25 µM | IC50 (human p38 kinase alpha; in vitro P38-alpha kinase): 0.01 µM
